# Measured values reported in ChEMBL document CHEMBL2034905, “Synthesis of benzimidazolyl-1,3,4-oxadiazol-2ylthio-N-phenyl (benzothiazolyl) acetamides as antibacterial, antifungal and antituberculosis agents” (Eur J Med Chem, 2012).
# How the values were obtained:
# Proteus vulgaris [1] = experiment: Antibacterial activity against Proteus vulgaris MTCC 1771 at 100 ug/disc by paper disc diffusion technique; assay type: functional; conditions: read-out: IZ
# Candida albicans [2] = experiment: Antifungal activity against Candida albicans MTCC 183 at 100 ug/disc by paper disc diffusion technique; assay type: functional; conditions: read-out: IZ
# Aspergillus clavatus [3] = experiment: Antifungal activity against Aspergillus clavatus MTCC 1323 by agar streak dilution method; assay type: functional
# Pseudomonas aeruginosa [4] = experiment: Antibacterial activity against Pseudomonas aeruginosa MTCC 741 by agar streak dilution method; assay type: functional
# Escherichia coli [5] = experiment: Antibacterial activity against Escherichia coli MTCC 739 at 100 ug/disc by paper disc diffusion technique; assay type: functional; conditions: read-out: IZ
# Staphylococcus aureus [6] = experiment: Antibacterial activity against Staphylococcus aureus MTCC 96 by agar streak dilution method; assay type: functional
# Shigella flexneri [7] = experiment: Antibacterial activity against Shigella flexneri MTCC 1457 at 100 ug/disc by paper disc diffusion technique; assay type: functional; conditions: read-out: IZ
# Proteus vulgaris [8] = experiment: Antibacterial activity against Proteus vulgaris MTCC 1771 by agar streak dilution method; assay type: functional
# Aspergillus clavatus [9] = experiment: Antifungal activity against Aspergillus clavatus MTCC 1323 at 100 ug/disc by paper disc diffusion technique; assay type: functional; conditions: read-out: IZ
# [10] = system: Mycobacterium tuberculosis; experiment: Antituberculosis activity against Mycobacterium tuberculosis H37Rv at 6.25 ug/ml by Lowenstein-Jensen method; assay type: functional
# Salmonella typhi [11] = experiment: Antibacterial activity against Salmonella typhi MTCC 733 at 100 ug/disc by paper disc diffusion technique; assay type: functional, Salmonella enterica subsp. enterica serovar Typhi; conditions: Salmonella enterica, read-out: IZ
# [12] = system: Mycobacterium tuberculosis; experiment: Antituberculosis activity against Mycobacterium tuberculosis H37Rv by Lowenstein-Jensen method; assay type: functional
# Aspergillus niger [13] = experiment: Antifungal activity against Aspergillus niger MTCC 282 at 100 ug/disc by paper disc diffusion technique; assay type: functional; conditions: read-out: IZ
# Aspergillus fumigatus [14] = experiment: Antifungal activity against Aspergillus fumigatus MTCC 343 at 100 ug/disc by paper disc diffusion technique; assay type: functional; conditions: read-out: IZ
# Escherichia coli [15] = experiment: Antibacterial activity against Escherichia coli MTCC 739 by agar streak dilution method; assay type: functional
# Shigella flexneri [16] = experiment: Antibacterial activity against Shigella flexneri MTCC 1457 by agar streak dilution method; assay type: functional
# [17] = Lipophilicity, log P of the compound; assay type: physicochemical; conditions: octanol/water
# Klebsiella pneumoniae [18] = experiment: Antibacterial activity against Klebsiella pneumoniae MTCC 109 by agar streak dilution method; assay type: functional
# Bacillus cereus [19] = experiment: Antibacterial activity against Bacillus cereus MTCC 430 at 100 ug/disc by paper disc diffusion technique; assay type: functional; conditions: read-out: IZ
# Staphylococcus aureus [20] = experiment: Antibacterial activity against Staphylococcus aureus MTCC 96 at 100 ug/disc by paper disc diffusion technique; assay type: functional; conditions: read-out: IZ
# Candida albicans [21] = experiment: Antifungal activity against Candida albicans MTCC 183 by agar streak dilution method; assay type: functional
# Aspergillus niger [22] = experiment: Antifungal activity against Aspergillus niger MTCC 282 by agar streak dilution method; assay type: functional
# Aspergillus fumigatus [23] = experiment: Antifungal activity against Aspergillus fumigatus MTCC 343 by agar streak dilution method; assay type: functional
# Bacillus cereus [24] = experiment: Antibacterial activity against Bacillus cereus MTCC 430 by agar streak dilution method; assay type: functional
# [25] = system: Mycobacterium tuberculosis; experiment: Antituberculosis activity against Mycobacterium tuberculosis H37Rv by BACTEC MGIT method; assay type: functional
# Pseudomonas aeruginosa [26] = experiment: Antibacterial activity against Pseudomonas aeruginosa MTCC 741 at 100 ug/disc by paper disc diffusion technique; assay type: functional; conditions: read-out: IZ
# Salmonella typhi [27] = experiment: Antibacterial activity against Salmonella typhi MTCC 733 by agar streak dilution method; assay type: functional, Salmonella enterica subsp. enterica serovar Typhi; conditions: Salmonella enterica
# Klebsiella pneumoniae [28] = experiment: Antibacterial activity against Klebsiella pneumoniae MTCC 109 at 100 ug/disc by paper disc diffusion technique; assay type: functional; conditions: read-out: IZ
Compound,zone of inhibition at 100 µg/disc (Proteus vulgaris [1]) [mm],zone of inhibition at 100 µg/disc (Candida albicans [2]) [mm],MIC (Aspergillus clavatus [3]) [µg/mL],MIC (Pseudomonas aeruginosa [4]) [µg/mL],zone of inhibition at 100 µg/disc (Escherichia coli [5]) [mm],MIC (Staphylococcus aureus [6]) [µg/mL],zone of inhibition at 100 µg/disc (Shigella flexneri [7]) [mm],MIC (Proteus vulgaris [8]) [µg/mL],zone of inhibition at 100 µg/disc (Aspergillus clavatus [9]) [mm],inhibition at 6.25 µg/mL [10] [%],zone of inhibition at 100 µg/disc (Salmonella typhi [11]) [mm],MIC [12] [µg/mL],zone of inhibition at 100 µg/disc (Aspergillus niger [13]) [mm],zone of inhibition at 100 µg/disc (Aspergillus fumigatus [14]) [mm],MIC (Escherichia coli [15]) [µg/mL],MIC (Shigella flexneri [16]) [µg/mL],logP [17],MIC (Klebsiella pneumoniae [18]) [µg/mL],zone of inhibition at 100 µg/disc (Bacillus cereus [19]) [mm],zone of inhibition at 100 µg/disc (Staphylococcus aureus [20]) [mm],further results
O=C(CSc1nnc(Cn2cnc3ccccc32)o1)Nc1nc2ccc(Cl)cc2s1,20,14,100,25,20,12.5,25,50,15,97,22,62.5,16,13,50,6.25,4.25,50,27,22,MIC (Candida albicans [21]): 100 µg/mL; MIC (Aspergillus niger [22]): 100 µg/mL; MIC (Aspergillus fumigatus [23]): 100 µg/mL; MIC (Bacillus cereus [24]): 6.25 µg/mL; MIC [25]: > 6.25 µg/mL; zone of inhibition at 100 µg/disc (Pseudomonas aeruginosa [26]): 23 mm; MIC (Salmonella typhi [27]): 50 µg/mL; zone of inhibition at 100 µg/disc (Klebsiella pneumoniae [28]): 20 mm
Cc1ccc2nc(NC(=O)CSc3nnc(Cn4cnc5ccccc54)o3)sc2c1,20,15,100,100,12,50,14,50,12,97,11,200,12,< 10,100,100,4.18,100,19,15,MIC (Candida albicans [21]): 100 µg/mL; MIC (Aspergillus niger [22]): 100 µg/mL; MIC (Aspergillus fumigatus [23]): 100 µg/mL; MIC (Bacillus cereus [24]): 50 µg/mL; MIC [25]: > 6.25 µg/mL; zone of inhibition at 100 µg/disc (Pseudomonas aeruginosa [26]): 15 mm; MIC (Salmonella typhi [27]): 100 µg/mL; zone of inhibition at 100 µg/disc (Klebsiella pneumoniae [28]): 18 mm
O=C(CSc1nnc(Cn2cnc3ccccc32)o1)Nc1nc2ccccc2s1,17,13,100,100,15,50,13,100,< 10,94,< 10,500,< 10,< 10,100,100,3.69,100,14,15,MIC (Candida albicans [21]): 100 µg/mL; MIC (Aspergillus niger [22]): 100 µg/mL; MIC (Aspergillus fumigatus [23]): 100 µg/mL; MIC (Bacillus cereus [24]): 100 µg/mL; MIC [25]: > 6.25 µg/mL; zone of inhibition at 100 µg/disc (Pseudomonas aeruginosa [26]): 12 mm; MIC (Salmonella typhi [27]): 100 µg/mL; zone of inhibition at 100 µg/disc (Klebsiella pneumoniae [28]): < 10 mm
O=C(CSc1nnc(Cn2cnc3ccccc32)o1)Nc1nc2ccc(Br)cc2s1,20,17,50,25,19,3.12,23,50,20,99,24,25,19,21,50,12.5,4.52,100,24,26,MIC (Candida albicans [21]): 100 µg/mL; MIC (Aspergillus niger [22]): 50 µg/mL; MIC (Aspergillus fumigatus [23]): 50 µg/mL; MIC (Bacillus cereus [24]): 25 µg/mL; MIC [25]: > 6.25 µg/mL; zone of inhibition at 100 µg/disc (Pseudomonas aeruginosa [26]): 23 mm; MIC (Salmonella typhi [27]): 25 µg/mL; zone of inhibition at 100 µg/disc (Klebsiella pneumoniae [28]): 14 mm
O=C(CSc1nnc(Cn2cnc3ccccc32)o1)Nc1nc2ccc(I)cc2s1,26,19,100,100,15,12.5,22,12.5,14,96,16,200,14,< 10,50,25,5.05,100,23,22,MIC (Candida albicans [21]): 100 µg/mL; MIC (Aspergillus niger [22]): 100 µg/mL; MIC (Aspergillus fumigatus [23]): 100 µg/mL; MIC (Bacillus cereus [24]): 25 µg/mL; MIC [25]: > 6.25 µg/mL; zone of inhibition at 100 µg/disc (Pseudomonas aeruginosa [26]): 14 mm; MIC (Salmonella typhi [27]): 100 µg/mL; zone of inhibition at 100 µg/disc (Klebsiella pneumoniae [28]): 14 mm
